The results in this text go back to US20070142345A1, “Steroids for cancer treatment” (priority 2004, published 2007).

Bounds are passed on as bounds.

The test system of assay [1] is ICR derived immature female mice. Description: In vivo estrogenic antagonism, estradiol-benzoate challenge, uterine wet weight. The conditions noted are these: 10 mg/kg s.c., three consecutive days, estradiol-benzoate 3 μg/kg s.c. challenge, uterus wet weight 24 h after final dose. The arrangement: unit: %. The procedure:
In Vivo Estrogenic Antagonism (MDS PharmaServices)
Compounds were administered s.c. (10 mg/kg) for three consecutive days to a group of 5 ICR derived immature female mice weighing approx. 13 g and challenged with estradiol-benzoate (3 μg/kg s.c.) immediately after each daily dosing. The animals were sacrificed 24 h after the final dose and wet weight of the uterus was measured. A 50% or greater reduction in the estradiol-induced increase in uterine weight indicates possible estrogen antagonist activity.

In a further assay the target is T1, hER-α (Homo sapiens, UniProt P03372).
T1 construct: purchased MDS PharmaServices (contract assay); host or cells: insect Sf cells
T1 sequence (P03372 1-595): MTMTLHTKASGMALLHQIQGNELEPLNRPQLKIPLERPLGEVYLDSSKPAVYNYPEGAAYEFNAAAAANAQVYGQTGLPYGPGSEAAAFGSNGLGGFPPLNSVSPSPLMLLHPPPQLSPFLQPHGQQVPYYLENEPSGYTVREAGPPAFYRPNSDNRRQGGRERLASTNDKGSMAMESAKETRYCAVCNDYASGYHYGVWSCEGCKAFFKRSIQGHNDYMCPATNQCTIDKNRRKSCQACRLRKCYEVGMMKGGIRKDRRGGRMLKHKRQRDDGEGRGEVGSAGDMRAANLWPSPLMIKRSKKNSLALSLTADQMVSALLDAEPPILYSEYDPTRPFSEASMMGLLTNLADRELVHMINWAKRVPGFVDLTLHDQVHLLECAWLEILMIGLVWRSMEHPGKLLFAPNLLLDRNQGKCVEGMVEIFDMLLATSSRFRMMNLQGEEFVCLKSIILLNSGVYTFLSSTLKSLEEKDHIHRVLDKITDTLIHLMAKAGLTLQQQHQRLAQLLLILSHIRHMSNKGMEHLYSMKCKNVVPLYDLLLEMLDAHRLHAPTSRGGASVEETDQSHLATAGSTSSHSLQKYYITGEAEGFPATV
As to the kind of experiment: In vitro binding affinity to the estrogen receptor-α, displacement assay with 0.5 nM 3H-estradiol. Conditions: hER-α recombinant, insect Sf cells, 0.5 nM 3H-estradiol radioligand, tested 0.03-10.0 nM; for IC50: read-out: ERα-aff IC50; for Ki: read-out: ERα-aff Ki. The procedure:
In Vitro Binding Affinty to the Estrogen Receptor-α (MDS PharmaServices)
Binding affinity was determined in a displacement assay using hER-α (recombinant, insect Sf cells) with 0.5 nM ^3H-estradiol as radioligand. The compounds were tested in concentrations from 0.03-10.0 nM. Results are given as IC50 and Ki.

The subject of assay [2] is ICR derived immature female mice. As to the kind of experiment: In vivo estrogenic agonism, uterine wet weight. Conditions: 10 mg/kg s.c., three consecutive days, uterus wet weight 24 h after final dose. The procedure:
In Vivo Estrogenic Agonism (MDS PharmaServices)
Compounds were administered s.c. (10 mg/kg) for three consecutive days to a group of 5 ICR derived immature female mice weighing approx. 13 g. The animals were sacrificed 24 h after the final dose and wet weight of the uterus was measured. A 50% or greater increase in the uterine weight relative to the vehicle control group indicates possible estrogen agonist activity.

Consider `CCCCN(C)C(=O)CCCCCCCCCC[C@@H]1Cc2cc(O)ccc2[C@H]2CC[C@]3(C)[C@@H](O)CC[C@H]3[C@H]12` [ICI 164, 384, 11-(3,17β-Dihydroxy-estra-1,3,5(10)-triene-7α-yl)-undecanoic acid n-butyl-methyl-amide, reference compound], for which the “in vivo antagonism (reduction in the estradiol-induced increase in uterine weight)” value in assay [1] is listed as 66.
In the case of `C[C@]12CCC3c4ccc(O)cc4[C@@H](O)[C@@H](CCCCCCCCC[S+]([O-])CCCC(F)(F)C(F)(F)F)C3C1C[C@@H](O)C21CC1` (stereo partly drawn) [Ex 12, 17-(1,2-Ethylene)-3,6α,16α-trihydroxy-7α-[9-[(4,4,5,5,5-pentafluoro-n-pentyl)sulfinyl]nonyl]-1,3,5(10)-triene], on hER-α, the IC50 turned out to be 1.59 nM and the Ki was 0.45 nM.
Regarding `C=C1[C@H](O)CC2C3C(CC[C@]12C)c1ccc(O)cc1C[C@H]3CCCCCCCCC[S+]([O-])CCCC(F)(F)C(F)(F)F` (some centres unmarked) [Ex 5], at hER-α, the IC50 was found to be 1.19 nM and the Ki came to 0.34 nM. Moreover, in assay [2], the “In vivo agonism (increase in uterine weight relative to vehicle control)” value was 8%. Further, the “in vivo antagonism (reduction in the estradiol-induced increase in uterine weight)” value in assay [1] was determined as 55.
With `CC12CCC3c4ccc(O)cc4CC(CCCCCCCCC[S+]([O-])CCCC(F)(F)C(F)(F)F)C3C1CCC2O` (centres unmarked) [ICI 182, 780, reference compound], the “in vivo antagonism (reduction in the estradiol-induced increase in uterine weight)” value in assay [1] is 66.
`CO[C@H]1c2cc(O)ccc2C2CC[C@@]3(C)C(C[C@@H](O)C34CC4)C2[C@@H]1CCCCCCCCC[S+]([O-])CCCC(F)(F)C(F)(F)F` (some centres unmarked) [Ex 8]: on hER-α, the IC50 was determined as 10.2 nM and the Ki was 2.91 nM.
Consider `CCCCN(C)C(=O)CCCCCCCCCC[C@@H]1Cc2cc(O)ccc2C2CC[C@@]3(C)C(C[C@@H](O)C34CC4)C21` (stereo partly drawn) [Ex 4, 11-(17-(1,2-Ethylene)-3,16α-dihydroxy-estra-1,3,5(10)-triene-7α-yl)-undecanoic acid n-butyl-methyl-amide], for which, on hER-α, the IC50 stood at 2.48 nM and the Ki came to 0.71 nM. Also, the “In vivo agonism (increase in uterine weight relative to vehicle control)” value in assay [2] amounted to 4%. Further, in assay [1], the “in vivo antagonism (reduction in the estradiol-induced increase in uterine weight)” value was found to be 58.
For `C[C@]12CCC3c4ccc(O)cc4[C@H](F)[C@@H](CCCCCCCCC[S+]([O-])CCCC(F)(F)C(F)(F)F)C3C1C[C@@H](O)C21CC1` (stereo partly drawn) [Ex 16, 17-(1,2-Ethylene)-6β-fluoro-3,16α-dihydroxy-7α-[9-[(4,4,5,5,5-pentafluoro-n-pentyl)sulfinyl]nonyl]-estra-1,3,5(10)-triene], at hER-α, the IC50 came out at 1.04 nM and the Ki was 0.3 nM.
As for `C=C1[C@H](O)C[C@H]2[C@@H]3[C@H](CCCCCCCCCCC(=O)N(C)CCCC)Cc4cc(O)ccc4[C@H]3CC[C@]12C` [Ex 1, 11-(3,16α-Dihydroxy-17-methylene-estra-1,3,5(10)-triene-7α-yl)-undecanoic acid n-butyl-methyl-amide], at hER-α, the IC50 was determined as 3.5 nM and the Ki was 1 nM. In addition, the “In vivo agonism (increase in uterine weight relative to vehicle control)” value in assay [2] is on record as 1%. Further, in assay [1], the “in vivo antagonism (reduction in the estradiol-induced increase in uterine weight)” value is on record as 61.
Turning to `CO[C@@H]1c2cc(O)ccc2C2CC[C@@]3(C)C(C[C@@H](O)C34CC4)C2[C@@H]1CCCCCCCCC[S+]([O-])CCCC(F)(F)C(F)(F)F` (stereo partly drawn) [Ex 14, 17-(1,2-Ethylene)-3,16α-dihydroxy-6α-methoxy-7α-[9-[(4,4,5,5,5-pentafluoro-n-pentyl)sulfinyl]nonyl]-estra-1,3,5(10)-triene], on hER-α, the IC50 is > 10 nM and the Ki was > 10 nM.
For the compound `C[C@]12CCC3c4ccc(O)cc4C(=O)[C@@H](CCCCCCCCC[S+]([O-])CCCC(F)(F)C(F)(F)F)C3C1C[C@@H](O)C21CC1` (stereo partly drawn) [Ex 10, 17-(1,2-Ethylene)-3,16α-dihydroxy-6-keto-7α-[9-[(4,4,5,5,5-pentafluoro-n-pentyl)sulfinyl]nonyl]-estra-1,3,5(10)-triene], on hER-α, the IC50 came out at 4.75 nM and the Ki stood at 1.36 nM.
The matching figures for `C[C@]12CCC3c4ccc(O)cc4C[C@@H](CCCCCCCCC[S+]([O-])CCCC(F)(F)C(F)(F)F)C3C1C[C@@H](O)C21CC1` (stereo partly drawn) [Ex 18, 17-(1,2-Ethylene)-3,16α-dihydroxy-7α-[9-[(4,4,5,5,5-pentafluoro-n-pentyl)sulfinyl]nonyl]-estra-1,3,5(10)-triene]: 0.92 nM and 0.26 nM.

In general, IC50 refers to the point on the concentration scale where inhibition reaches its midpoint. The term Ki denotes the equilibrium dissociation constant of an inhibitor or competing ligand from its target.
